Test results reported in patent US7888120B2, “Global regulator of morphogenesis and pathogenicity in dimorphic fungi and uses thereof” (Wisconsin Alumni Research Foundation, priority 2006, dated 2011).

Test system: B. dermatitidis mutant 4-2-2
Type: cell-based, Blastomyces dermatitidis

Structure (SMILES)	Sensitivity of mutant versus parent strain T53-19
Nc1c(/N=N/c2ccc(-c3ccc(/N=N/c4cc(S(=O)(=O)O)c5ccccc5c4N)cc3)cc2)cc(S(=O)(=O)O)c2ccccc12 [Congo red]	more sensitive than the parent strain
O=S(=O)([O-])c1cc(Nc2nc(Nc3ccccc3)nc(N(CCO)CCO)n2)ccc1/C=C/c1ccc(Nc2nc(Nc3ccccc3)nc(N(CCO)CCO)n2)cc1S(=O)(=O)[O-].[Na+].[Na+] [calcofluor]	more sensitive than the parent strain
